Measured values from US4442093A, “Method for administering 24,25-dihydroxycholecalciferol to persons suffering from hypercalcemia” (Kureha Kagaku Kogyo Kabushiki Kaisha, priority 1981, dated 1984).

How the values were obtained:
[1] = test system: content of magnesium in serum; experiment: Serum magnesium in rats given puromycin aminonucleoside (Example 15); format: in vivo, male Wistar rats; conditions: AN 1.5 mg/100 g
Protocol: Forty male Wistar rats in 9th week after birth were divided into four groups, and the rats of each group were treated as follows.
To the rats of the first group were administered subcutaneously physiological saline solution once a day for continuous 12 days at a daily dose of 0.1 ml/100 g body weight with the simultaneous oral administration of triglyceride ester of fatty acid used in Example 1 (abbreviated as MCT) containing 0.1% by weight of ethanol once a day for continuous 12 days at a daily dose of 0.2 ml/100 g body weight followed by oral administration of only MCT once a day for another 3 continuous days at the same daily dose rate.
To the rats of the second group were subcutaneously administered a solution of 1.5 mg of puromycin aminonucleoside (abbreviated hereinafter as AN) in 0.1 ml of physiological saline solution once a day for continuous 12 days at a daily dose rate of 1.5 mg of AN/100 g body weight. The saline solution had been sterilized with a Milipore filter before administration. To the rats were further administered orally MCT in the same manner as in those of the first group. […]
On 15th day after the commencement of the above-mentioned administration, blood specimen was collected from all the rats, and after preparing each specimen of serum from each blood specimen, the content of magnesium in each serum specimen was determined by atomic absorption method. […]

blood sugar level = experiment: Blood sugar in patients (Example 23); format: in vivo, human
Protocol: Three patients shown in Table 17 were treated by oral administration of a daily dose of 4 to 6 micrograms of 24R,25-(OH)2 -D3 in a form of the soft capsule composition obtained in Example 6 for 3 continuous weeks. After the completion of administration, the patient was fasted for a night and their blood specimen was collected at 11:00 a.m. in the next morning.
Effectiveness of reducing blood sugar level (ERBS) is calculated from the […]

[2] = test system: content of magnesium in serum and bone; experiment: Serum and bone magnesium in rats on Vitamin D-deficient diet (Example 16); format: in vivo, male Wistar rats; conditions: diet TD-81143
Protocol: Forty male Wistar rats in 9th week after birth were divided equally into four groups, and the rats of each group were treated as follows:
The rats of the first group were raised with a normal diet (TD-81144) with daily oral administration of 0.2 ml of MCT (refer to Example 15)/100 g body weight for 5 weeks.
The rats of the second group were raised with a Vitamin D-deficient diet (TD-81143, made by TEKLAD Co., U.S.A., which causes abnormal metabolism of magnesium) with daily oral administration of 0.2 ml of MCT/100 g body weight for 5 weeks.
The rats of the third group were raised with the Vitamin D-deficient diet as in those of the […] with daily oral administration of 1 microgram of 24R,25-(OH)2 -D3 dissolved in 0.2 ml of MCT/100 g body weight for 5 weeks.
The rats of the fourth group were raised with the Vitamin D-deficient diet as in those of the […] with daily oral administration of 10 micrograms of 24R,25-(OH)2 -D3 dissolved in 0.2 ml of MCT/100 g body weight for 5 weeks.
After the final administration was over, all the rats were sacrificed to collect their bones and blood respectively.
Serum specimen was prepared by the ordinary method from the blood specimen, and the bones were washed to remove marrow, lyopholized at -20° C. for 3 days and pulverized in a mortar. After de-ashing 50 mg of the thus pulverized bone with 1 ml of 2 N aqueous hydrochloric solution at room temperature, the insoluble matter was removed by filtration, and the filtrate was subjected to atomic absorption method to find out the content of magnesium in the bone specimen. Magnesium content of the serum specimen was determined by atomic absorption method.

[3] = test system: LICR-LON-HMy 2 cells derived from human myeloma; experiment: Inhibition of proliferation of LICR-LON-HMy 2 cells (Example 25); format: cell-based; conditions: 3 days
Protocol: In a similar manner to Example 24, in vitro proliferated strain of LICR-LON-HMy 2 cells derived from human myeloma were cultured in each one of the same culture mediums as those used in Example 24. After culturing for 3 days, the cultured medium was stained with tripan blue and observed under a microscope to count the number of living cells, the results being shown in Table 19.
In Table 19, the inhibition rate is based on the number of cells in the culture medium added specifically with dimethylsulfoxide as in Example 24.

[4] = average of 3 patients, 4 to 6 µg/day oral, 3 weeks
[5] = person fourteen, 4 µg/day oral, 3 weeks
[6] = person nineteen, 6 µg/day oral, 3 weeks
[7] = person seven, 6 µg/day oral, 3 weeks

What does the source list for C=C1CC[C@H](O)C/C1=C/C=C1\CCC[C@]2(C)[C@@H]([C@H](C)CC[C@@H](O)C(C)(C)O)CC[C@@H]12 [24R,25-(OH)2 -D3]?
Mg in serum ([1]; 3rd group, dose 1 per 100 g b.w. oral 12 days): 4.5 ± 0.32 mg/dL; Mg in serum ([1]; 4th group, dose 10 per 100 g b.w. oral 12 days): 4.3 ± 0.30 mg/dL; Blood sugar level after administration, average (blood sugar level; [4]): 129.7 ± 9.1 mg/dL; Effectiveness in reducing blood sugar level, average (blood sugar level; [4]): 86.2%; Blood sugar level before administration, average (blood sugar level; average of 3 patients, baseline): 182 ± 13.5 mg/dL; Blood sugar level after administration (blood sugar level; [5]): 120 mg/dL; Effectiveness in reducing blood sugar level (blood sugar level; [5]): 100%; Blood sugar level before administration (blood sugar level; person fourteen, baseline): 168 mg/dL; Blood sugar level after administration (blood sugar level; [6]): 138 mg/dL; Effectiveness in reducing blood sugar level (blood sugar level; [6]): 76%; Blood sugar level before administration (blood sugar level; person nineteen, baseline): 195 mg/dL; Blood sugar level after administration (blood sugar level; [7]): 131 mg/dL; Effectiveness in reducing blood sugar level (blood sugar level; [7]): 82.5%; Blood sugar level before administration (blood sugar level; person seven, baseline): 183 mg/dL; Content of magnesium in bone ([2]; 1 µg/100 g/day oral 5 weeks): 0.395 ± 0.021%; Content of magnesium in serum ([2]; 1 µg/100 g/day oral 5 weeks): 4.0 ± 0.3 mg/dL; Content of magnesium in bone ([2]; 10 µg/100 g/day oral 5 weeks): 0.396 ± 0.016%; Content of magnesium in serum ([2]; 10 µg/100 g/day oral 5 weeks): 3.6 ± 0.3 mg/dL; Number of myeloma cells after culture ([3]; 1 microgram/ml): 8.0 ×10^5 cells/ml; Number of myeloma cells after culture ([3]; 10 micrograms/ml): 0.4 ×10^5 cells/ml; inhibition at 1 µg/mL ([3]; Homo sapiens, 72 h, 1 microgram/ml, vs dimethylsulfoxide, read-out: Inhibition Rate of the myeloma cells): 12%; inhibition at 10 µg/mL ([3]; Homo sapiens, 72 h, 10 micrograms/ml, vs dimethylsulfoxide, read-out: Inhibition Rate of the myeloma cells): 96%
